This note sets out measurements from patent US12097213B2, “Sequential treatment of cancers using 6-thio-dG, checkpoint inhibitors and radiation therapy” (The Board of Regents of the University of Texas System, priority 2020, dated 2024).

Holding throughout (type): in vivo, mouse
One assay deals with MC38 tumor cells. Briefly: MC38 tumor growth and treatment in mice. The method, then:
(§1) Tumor growth and treatment. A total of 5×10^5 MC38, 5×10^5 CT26 or 1×10^6 LLC cells were inoculated subcutaneously into right dorsal flanks of the mice in 100 μL phosphate buffered saline (PBS). Tumor-bearing mice were randomly grouped into treatment groups when tumors grew to around 100 mm^3. For 6-thio-dG single treatment, 3 mg/kg 6-thio-dG was intraperitoneally given on days 7, 8 and 9 in MC38 tumor and LLC tumor and on days 5, 6, 7 for CT26 tumor. For CSF1R, NKL.1, CD4+ and CD8+ T cell depletion, 200 μg of antibodies were intraperitoneally injected 1 day before treatment initiation and then twice a week for 2 weeks. For PD-L1 blockade combination therapy in MC38 model, 6-thio-dG was given on day 10 and day 11, 50 μg PD-L1 was intraperitoneally injected on day 13 and 17. For PD-L1 blockade combination therapy in LLC model, 6-thio-dG was given on day 4, 5, 6, 10 and 11, 200 μg PD-L1 was intraperitoneally injected on day 8 and 13. Tumor volumes were measured by the length (a), width (b) and height (h) and calculated as tumor volume=abh/2.

Assay [1] relates to LLC murine lung tumor cells. Briefly: LLC tumor growth and treatment in mice. The method, then: as §1, with “For 6-thio-dG single treatment, 3 mg/kg 6-thio-dG was intraperitoneally given on days 7, 8 and 9 in MC38 tumor and LLC tumor and on days 5, 6, 7 for CT26 tumor.” left out
The next assay has as its system tumor-specific T cells. As to the kind of experiment: IFN-γ ELISPOT of splenocytes / draining lymph node cells. Particulars: advanced MC38 tumors; stimulated with irradiated MC38 tumor cells. The method, then: IFN-γ enzyme-linked immunosorbent spot assay (ELISPOT). MC38 tumors were injected subcutaneously on the right flank of C57BL/6. For 6-thio-dG single treatment, 3 mg/kg 6-thio-dG was intraperitoneally given on days 7, 8 and 9; for PD-L1 blockade combination therapy in MC38 model, 3 mg/kg 6-thio-dG was given on day 10 and day 11, 50 μg PD-L1 was intraperitoneally injected on day 11. 7 days after last treatment, tumor draining lymphoid and spleen from tumor-bearing mice were collected and single-cell suspension was prepared. Irradiated MC38 tumor cells and control LLC tumor cells were used to re-stimulate the tumor-specific T cells. 1.5×10^5 draining lymph nodes cells or splenocytes and 7.5×10^4 irradiated tumor cells were co-cultured for 48 hrs, and ELISPOT assay was performed using the IFN-γ ELISPOT kit (BD Bioscience) according to the manufacturer's instructions. IFN-γ spots were enumerated with the CTL-ImmunoSpot® S6 Analyzer (Cellular Technology Limited).

With “anti-PD-L1: fully humanized, engineered monoclonal antibody of IgG1 isotype against PD-L1 (Atezolizumab) [reference compound]”, the “MC38 tumors in LLC cured mice” value in the assay on MC38 tumor cells (LLC cured mice injected with MC38) is reported as “had no affect”. Moreover, the “tumor volume / tumor growth in advanced tumors” value with MC38 tumor cells (tumor sizes 150-200 mm^3, 6-thio-dG 3 mg/kg days 10, 11, 50 μg anti-PD-L1 days 13 and 17) is “difficult to control”. In addition, in assay [1] (PD-L1 blockade resistant LLC model, 6-thio-dG 3 mg/kg days 4, 5, 6, 10, 11, 200 μg anti-PD-L1 days 8 and 13), the tumor burden result is recorded as “no therapeutic effect”. Also, in assay [1] (lewis lung carcinoma, three days 6-thio-dG followed two days later with anti-PD-L1), the “tumor growth (FIG. 8A)” value is given as “same rapid tumor growth”. In addition, in the assay on tumor-specific T cells, the “tumor-specific T cell response in draining lymph nodes (IFN-γ production)” value was “little effect”.
